From the supplement of paper PMC8967900

What was measured:
Test in all cases: selective drug sensitivity score (sDSS, relative to normal bone marrow) (sDSS (score)); higher = more potent and effective on the cell line relative to normal bone marrow cells
Details in all cases: 72 h
ALL-SIL = tested on: ALL-SIL
KOPN-8 = tested on: KOPN-8
KASUMI-9 = tested on: KASUMI-9
TMD5 = tested on: TMD5
RCH-ACV = tested on: RCH-ACV
COG-LL-317 = tested on: COG-LL-317
MHH-CALL-4 = tested on: MHH-CALL-4
COG-LL-332h = tested on: COG-LL-332h
COG-LL-402h = tested on: COG-LL-402h
697 = tested on: 697
NALL-1 = tested on: NALL-1
COG-LL-355h = tested on: COG-LL-355h
PEER = tested on: PEER
TANOUE = tested on: TANOUE
JURKAT = tested on: JURKAT
SUP-B15 = tested on: SUP-B15
CCRF-HSB2 = tested on: CCRF-HSB2
HPB-ALL = tested on: HPB-ALL
KARPAS-45 = tested on: KARPAS-45
380 = tested on: 380
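Note: ALL cell lines in 384-well plates, five doses spanning 10,000-fold, each plate scaled between vehicle and 100 µmol/L benzalkonium chloride controls, sDSS an adapted area-under-curve metric.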

Compound | selective drug sensitivity score (ALL-SIL) | selective drug sensitivity score (KOPN-8) | selective drug sensitivity score (KASUMI-9) | selective drug sensitivity score (TMD5) | selective drug sensitivity score (RCH-ACV) | selective drug sensitivity score (COG-LL-317) | selective drug sensitivity score (MHH-CALL-4) | selective drug sensitivity score (COG-LL-332h) | selective drug sensitivity score (COG-LL-402h) | selective drug sensitivity score 697 | selective drug sensitivity score (NALL-1) | selective drug sensitivity score (COG-LL-355h) | selective drug sensitivity score (PEER) | selective drug sensitivity score (TANOUE) | selective drug sensitivity score (JURKAT) | selective drug sensitivity score (SUP-B15) | selective drug sensitivity score (CCRF-HSB2) | selective drug sensitivity score (HPB-ALL) | selective drug sensitivity score (KARPAS-45) | selective drug sensitivity score 380
CNC(=O)c1ccc(N2C(=S)N(c3ccc(C#N)c(C(F)(F)F)c3)C(=O)C2(C)C)cc1F [Enzalutamide] (top concentration 10000 nM) | -0.82 | 5.18 | -0.82 | -0.82 | -0.72 | 1.18 | -0.72 | -0.12 | 0.68 | 1.48 | -0.82 | -0.82 | 0.48 | -0.32 | 1.18 | 3.38 | -0.52 | 8.28 | -0.82 | -0.82
Cn1cc(C2=C(c3cn(C4CCN(Cc5ccccn5)CC4)c4ccccc34)C(=O)NC2=O)c2ccccc21 [Enzastaurin] (top concentration 10000 nM) | 3.96 | 2.46 | 4.36 | 0.06 | 2.36 | 7.26 | -0.04 | 6.16 | 5.16 | 5.76 | -0.34 | 6.76 | 6.66 | 2.46 | 4.26 | 4.86 | 5.06 | -0.24 | 4.86 | 3.96
NS(=O)(=O)NCCNc1nonc1/C(=N/O)Nc1ccc(F)c(Br)c1 [Epacadostat] (top concentration 10000 nM) | -0.26 | 2.44 | 0.74 | 4.44 | -0.26 | 1.14 | 4.24 | -0.26 | -0.26 | -0.26 | 3.74 | -0.26 | 0.14 | -0.26 | -0.16 | -0.26 | -0.26 | -0.16 | -0.26 | -0.26
CCOc1ccccc1-n1c(C(C)N2CCN(C(=O)COc3ccc(Cl)cc3)CC2)nc2ccccc2c1=O (stereo not given) [Erastin] (top concentration 10000 nM) | 6.94 | 18.8 | 7.74 | 7.04 | 17.6 | 11.2 | 6.44 | 12.7 | 7.64 | 20.1 | 6.64 | 14.4 | 7.94 | -9.96 | -0.16 | 14 | 10.6 | 6.54 | 8.24 | 24.8
COc1cc(OC)cc(N(CCNC(C)C)c2ccc3ncc(-c4cnn(C)c4)nc3c2)c1 [Erdafitinib] (top concentration 1000 nM) | 2.74 | -0.56 | 0.34 | 4.74 | 2.04 | -0.56 | -0.46 | -0.46 | 0.04 | -0.06 | 5.34 | -0.56 | -0.36 | -0.56 | -0.56 | -0.46 | 3.04 | 1.64 | -0.06 | -0.56
CC(C)(C)NC(=O)[C@H]1CC[C@H]2[C@@H]3CC[C@H]4NC(=O)C=C[C@]4(C)[C@H]3CC[C@]12C [Finasteride] (top concentration 10000 nM) | 1.78 | 8.18 | -0.12 | 0.58 | -0.52 | -0.52 | 1.88 | -0.52 | -0.52 | -0.52 | 3.48 | -0.52 | -0.52 | -0.52 | -0.52 | 3.08 | -0.52 | 0.28 | -0.52 | -0.52
O=c1[nH]c(=O)n([C@H]2C[C@H](O)[C@@H](CO)O2)cc1F [Floxuridine] (top concentration 10000 nM) | 18.3 | 37.3 | 29 | -1.98 | 39.1 | 32.4 | 22.6 | 26.1 | 28.2 | 35.8 | 21 | 6.52 | 14.2 | 2.92 | 18.7 | 42.4 | 4.42 | 1.12 | -1.38 | 37.9
CNc1nc(Nc2cn(C(C)(C)C#N)nc2C)ncc1C(F)(F)F [GNE-0877] (top concentration 1000 nM) | 0 | 0 | 0 | 0 | 0 | 0 | 0 | 0 | 0 | 0 | 0 | 0 | 0 | 0 | 0 | 0 | 0 | 0 | 0 | 0
CCCc1cc(C)[nH]c(=O)c1CNC(=O)c1cc(-c2ccnc(N3CCN(C)CC3)c2)cc2c1cnn2C(C)C [GSK343] (top concentration 1000 nM) | 0 | 0 | 0 | 0 | 0 | 0 | 0 | 0 | 0 | 0 | 0 | 0 | 0 | 0 | 0 | 0 | 0 | 0 | 0 | 0
O=C(O)c1ccc(O)c2ncccc12 [IOX-1] (top concentration 100000 nM) | 6.24 | 2.84 | 2.94 | 0.64 | 3.74 | 4.54 | 2.24 | 7.54 | 3.64 | 5.64 | 2.24 | 3.24 | 4.34 | 2.24 | 3.54 | 4.24 | 5.34 | 2.94 | 4.04 | 8.64
